Test results taken from ChEMBL document CHEMBL2040799, “Exploring the Requirements for the Hydrophobic Scaffold and Polar Amine in inhibitors of M2 from Influenza A Virus” (ACS Med Chem Lett, 2011).

Test system: not listed separately
Experiment: Inhibition of Influenza A Virus M2 proton channel expressed in Xenopus laevis oocytes after 2 mins by two-electrode […] assay
Assay type: cell-based
Conditions: Oocyte
With `NNC1CCC2(CCCCC2)CC1` the IC50 was 31 µM.
`NC12CC3CCC(CC(C3)C1)C2` gave an IC50 of 24 µM.
For `NC(CO)C12CC3CC(CC(C3)C1)C2` (stereo not given), the IC50 was 16 µM.
For `O=C1C2CC3CC(C2)CC1C3`, the IC50 was 29 µM.
Compound `OC12CC3CC(CC(C3)C1)C2` has an IC50 of 20 µM.
`NC1C2C3CC4C1C1C2CC3C41` (stereo not given) gave an IC50 of 8 µM.
Compound `NC1CC2CC1C1CCCC21` (stereo not given) has an IC50 of 9 µM.
Compound `NC1C2C3CC4C2C(O)C2C1C3C42` (stereo not given) has an IC50 of 24 µM.
With `CC(C)(C)CC(C)(C)N` the IC50 was 21 µM.
Work on `C1CCC2(CC1)CCNCC2` yielded an IC50 of 1 µM.
Work on `NN1CCC2(CCCCC2)CC1` yielded an IC50 of 7 µM.
For `NC12CCC3CC(CC(C3)C1)C2`, the IC50 was 29 µM.
Compound `CC1(O)C2CC3CC(C2)CC1C3` (stereo not given) has an IC50 of 14 µM.
With `N=C(N)C12CC3CC(CC(C3)C1)C2` the IC50 was 4 µM.
Work on `N=C(N)NC12CC3CC(CC(C3)C1)C2` yielded an IC50 of 15 µM.

Test system: Oocyte
Experiment: Inhibition of Influenza A Virus M2 proton channel expressed in Xenopus laevis oocytes at 100 uM after 2 mins by two-electrode […] assay
Assay type: cell-based
Conditions: not given
With `CC12CC3(O)CC1(C)CC3(O)C2` the inhibition was 40%.
With `N=C(NO)C12CC3CC(CC(C3)C1)C2` the inhibition was 72%.
With `OC1CCC(C2CC3CCC2C3)CC1O` (stereo not given) the inhibition was 80%.
In the case of `NNC1CCC2(CCCCC2)CC1`, the inhibition is reported as 79%.
In the case of `NC12CC3CCC(CC(C3)C1)C2`, the inhibition is reported as 81%.
Compound `OC1C2C3CC4C2C(O)C2C1C3C42` (stereo not given) has an inhibition of 76%.
Work on `NC(CO)C12CC3CC(CC(C3)C1)C2` (stereo not given) yielded an inhibition of 90%.
`NC12CC3CC(C1)CC(CO)(C3)O2` gave an inhibition of 13%.
With `N=C(N)NCC12CC3CCC(CC(C3)C1)C2` the inhibition was 90%.
In the case of `O=C1CC2(CCCCC2)CC(=O)N1`, the inhibition is reported as 35%.
`N=C(N)NC(=N)NC12CC3CC(CC(C3)C1)C2` showed an inhibition of 70%.
With `O=C1C2CC3CC(C2)CC1C3` the inhibition was 69%.
With `CC1(C)C(N)C1(C)C` the inhibition was 28%.
For `O=S(=O)(O)C12CC3CC(CC(C3)C1)C2`, the inhibition was 3%.
`NOC12CC3CC(CC(C3)C1)C2` showed an inhibition of 87%.
Compound `OC12CC3CC(CC(C3)C1)C2` has an inhibition of 85%.
With `OC1C2C3CC4C1C1C2CC3C41` (stereo not given) the inhibition was 57%.
`NC1C2C3CC4C1C1C2CC3C41` (stereo not given) gave an inhibition of 96%.
For `C1CC2CC1C1CNC21` (stereo not given), the inhibition was 45%.
Work on `NC12CC3CC(C1)CC(O)(C3)C2` yielded an inhibition of 5%.
With `OC1CC2C3CCC(C3)C2C1O` (stereo not given) the inhibition was 50%.
In the case of `C1NC2CC3CC1CC(C3)C2`, the inhibition is reported as 84%.
`NC1CCC2(CCCCC2)CC1` gave an inhibition of 89%.
For `NC1Cc2ccccc2C1`, the inhibition was 6%.
`NC1C2CC3CC(C2)CC1C3` (stereo not given) showed an inhibition of 92%.
Compound `CC(C)(C)c1ccc(CN)cc1` has an inhibition of 40%.
Work on `NC1CC2CC1C1CCCC21` (stereo not given) yielded an inhibition of 94%.
`NC1C2C3CC4C2C(O)C2C1C3C42` (stereo not given) gave an inhibition of 86%.
With `CC(C)(C)CC(C)(C)N` the inhibition was 87%.
With `C1CCC2(CC1)CCNCC2` the inhibition was 95%.
With `NC12CC3CC(CC(C3)C1)C2` the inhibition was 91%.
With `NN1C(=O)CC2(CCCCC2)CC1=O` the inhibition was 29%.
Work on `NN1CCC2(CCCCC2)CC1` yielded an inhibition of 96%.
`NC(=O)C12CC3CC(CC(C3)C1)C2` showed an inhibition of 75%.
Compound `C1CC2CC1C1CNCC21` (stereo not given) has an inhibition of 74%.
Compound `NC12CCC3CC(CC(C3)C1)C2` has an inhibition of 92%.
`CC1(O)C2CC3CC(C2)CC1C3` (stereo not given) showed an inhibition of 86%.
With `N=C(N)C12CC3CC(CC(C3)C1)C2` the inhibition was 95%.
Work on `C1CC2CCC1CNC2` yielded an inhibition of 75%.
Compound `N=C(N)NC12CC3CC(CC(C3)C1)C2` has an inhibition of 97%.
